Patent US20090214529A9, “KINESIN INHIBITORS” (TaiGen Biotechnology Co., Ltd., priority 2007, published 2009)

Legend:
tumor cell = assay: Cytotoxicity assay (MTS); assay type: cell-based; conditions: 72 h; incubation for three days; read-out: IC50, tumor cell growth inhibition (MTS)
Method in brief: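 Tumour cells seeded overnight, then exposed to varying compound concentrations for three days. Viability read by MTS/PMS conversion to formazan (2 h, 37 °C, absorbance 490 nm). Results given as blank-corrected T/C (%) against vehicle controls.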

[1] = system: human colon cancer cell line (Colo205) xenograft; assay: In vivo tumor growth inhibition assay, nude mice s.c. implanted tumor model
Experimental: The human colon cancer cell line (Colo205) obtained from the American Type Culture Collection (Rockville, Md.) was used for the xenograft model. The cell line was maintained in growth medium supplemented with L-glutamine, ribonucleosides, deoxyribonucleosides, 10% FCS, and the following antimicrobial agents: 100 IU/ml penicillin, […] streptomycin, and […] amphotericin B. Cultures were established in 75-cm^2 flasks (Costar, Cambridge, Mass.), maintained at 37° C. in a humidified atmosphere with 5% CO2 in air, and subcultured every 4˜7 days with 0.25% trypsin in HBSS (Invitrogen Life Technologies, Carlsbad, Calif.). For in vivo tumor growth, cells (1×10^7) suspended in 100 μl of PBS were inoculated in the flanks of 5-week-old female athymic BALB/cAnNCij-nu/nu mice (Charles River, Kanagawa, Japan). Seven days after inoculation (day 7), mice with tumors measuring 6-7 mm in diameter were randomly separated into 3 groups with five mice in each group. Compound 36 was dissolved in a vehicle (10% 40 mM sodium citrate, 5% Tween-80, 5% ethanol in saline) and intraperitoneally administered respectively to the groups of mice at the selected dose levels with the selected dosing regimen. A vehicle was administered to the third group of mice. Tumor size was measured twice weekly until day 30. Tumor volume (TV) was calculated as follows: volume=[length (mm)×width (mm)^2]×0.52. The tumor growth for each group was expressed by the median values of the ratio between the tumor volume measured at a specific day to the initial tumor volume measured at the day of first dosing.

Human Colo205 cells = assay: Cell cycle arrest assay (flowcytometry, propidium iodide); assay type: cell-based; conditions: DNA content by flowcytometry
Experimental: The efficacy of a test compound to arrest cells as a KSP inhibitor was determined by flowcytometry analysis. Human Colo205 cells were grown in 6-well plates and treated the next day with the test compound for various time lengths. They were then scraped from plates using a rubber policeman, washed with PBS, and centrifuged at 1,000 rpm for 5 minutes. 1 ML of a buffer containing 10 μM of propidium iodide and 50 ug/ml of RNase A was used to re-suspend the cells. The cells were subsequently incubated in this buffer for 10 minutes at room temperature in the dark, passed through a filter to remove cell clumps, and observed under a Coulter Epics XL-MCL Training Modules flowcytometer.

SMILES | IC50 (tumor cell) | tumor growth inhibition (in words) ([1]; 40 mg/Kg and 30 mg/Kg, intraperitoneal, q2dx5, Colo205 xenograft) | tumor growth inhibition at day 10 ([1]; 40 mg/Kg and 30 mg/Kg, intraperitoneal, q2dx5, day 10) | tumor growth inhibition at day 13 ([1]; 40 mg/Kg and 30 mg/Kg, intraperitoneal, q2dx5, day 13) | tumor growth inhibition at day 16 ([1]; 40 mg/Kg and 30 mg/Kg, intraperitoneal, q2dx5, day 16) | tumor inhibition, higher dose versus lower dose ([1]; 40 mg/Kg compared with 30 mg/Kg, q2dx5) | shift in cell cycle population (Human Colo205 cells) | tumor growth inhibition at day 20 ([1]; 60 mg/Kg, q3dx3, day 20)
Cc1ccc(C(=O)N(CCN)C(c2nc3c(oc4ccc(Cl)cc43)c(=O)n2Cc2ccccc2)C(C)C)cc1 (centres unmarked) [Compound 36] | < 30 µM | significant tumor growth inhibition | more than 83% | more than 90% | more than 92% | stronger tumor inhibition |  | 
Cc1ccc(C(=O)N(CCN)C(c2nc3c(oc4ccc(F)cc43)c(=O)n2Cc2ccc(C#N)s2)C(C)C)cc1 (centres unmarked) [Compound 83] | < 30 µM |  |  |  |  |  | shift in the population of cells from a G0/G1 stage (2N DNA content) to a G2/M stage (4N DNA content) | 
Cc1ccc(C(=O)N(CCN)C(c2nc3c(oc4ccc(F)cc43)c(=O)n2Cc2cc(C)cs2)C(C)C)cc1 (centres unmarked) [Compound 84] | < 30 µM |  |  |  |  |  | shift in the population of cells from a G0/G1 stage (2N DNA content) to a G2/M stage (4N DNA content) | more than 90%
Cc1ccc(C(=O)N(CCN)C(c2nc3c(oc4ccc(F)cc43)c(=O)n2Cc2ccc(C(F)(F)F)o2)C(C)C)cc1 (centres unmarked) [Compound 86] | < 30 µM |  |  |  |  |  | shift in the population of cells from a G0/G1 stage (2N DNA content) to a G2/M stage (4N DNA content) | 
Cc1csc(Cn2c(C(C(C)C)N(CCN)C(=O)c3ccc(C)c(F)c3)nc3c(oc4ccc(F)cc43)c2=O)c1 (centres unmarked) [Compound 168] | < 30 µM |  |  |  |  |  | shift in the population of cells from a G0/G1 stage (2N DNA content) to a G2/M stage (4N DNA content) | 
Cc1ccc(C(=O)N(CCN)[C@@H](c2nc3c(oc4ccc(F)cc43)c(=O)n2Cc2ccc(Br)o2)C(C)C)cc1 [Compound 177] | < 30 µM |  |  |  |  |  | shift in the population of cells from a G0/G1 stage (2N DNA content) to a G2/M stage (4N DNA content) | 
